Holding throughout (settings): PKIS2 primary screening
Series [1] has as its system SH-SY5Y cells.
Excerpt: The PKIS2 Library was supplied by The Structural Genomics Consortium at the University of North Carolina at Chapel Hill.
Series [2] has as its system SH-SY5Y cells. The series is described as follows: AK (adenylate kinase) release ToxiLight cytotoxicity assay. Also: reference of the scale not given here.
Another series has as its system endogenous TFE3. The series is described as follows: TFE3 nuclear translocation, immunocytochemistry high-content imaging. The class given is cell-based.
In the next series the test system is endogenous TFEB. As to the kind of experiment: TFEB nuclear translocation, immunocytochemistry high-content imaging. The class given is cell-based.
For series [3], the system named is SH-SY5Y cells. The series is described as follows: Nuclear count from microscopy images (cellular growth and toxicity). Also: reference of the scale not given here.

Like-named read-outs stand apart in the source and are kept apart here.
For DQ Intensity in this document: reference of the scale not given here.
For DQ Spot in this document: reference of the scale not given here.

For the compound `CSc1nn2c(=O)cc(N3CCOCC3)nc2n1Cc1cccc(C(F)(F)F)c1C` [UNC10243881A], in the series on SH-SY5Y cells [1], the “DQ Intensity” value is recorded as 80.81 and the “DQ Spot” value came to 106.13. The compound further returned an AK in the series on SH-SY5Y cells [2] of 100.35. This compound also registered a TFE3 % in the series with endogenous TFE3 of 9.67%. In the series on endogenous TFEB, this compound came in with a TFEB % of 6.63%. Also, in the series on SH-SY5Y cells [3], the “Nuclear Count” value stood at 93.06.
As to `COc1cccc(NC(=O)NC2CCN(c3ccnc(Nc4ccc(F)cc4)n3)C2)c1` (stereo not drawn) [GSK1379721], in the series on SH-SY5Y cells [1] (DQ Red BSA intensity), the “DQ Intensity” value came out at 94.47. Moreover, in the series with SH-SY5Y cells [1] (DQ Red BSA spot count), the “DQ Spot” value was found to be 102.23. The same compound had an AK in the series on SH-SY5Y cells [2] of 103.41. Besides, in the series with endogenous TFE3, the TFE3 % is listed as 13.36%. In addition, the TFEB % with endogenous TFEB is given as 3.00%. For the same compound, the “Nuclear Count” value with SH-SY5Y cells [3] was found to be 112.40.
Turning to `O=c1cc(N2CCOCC2)nc2n(Cc3cccc4ccccc34)ccn12` [UNC10225439A], in the series on SH-SY5Y cells [1], the “DQ Intensity” value came to 73.77 and the “DQ Spot” value turned out to be 88.56. The compound also came in with an AK with SH-SY5Y cells [2] of 77.38. The TFE3 % with endogenous TFE3 was 9.76%. In the series on endogenous TFEB, this compound yielded a TFEB % of 8.17%. Moreover, the “Nuclear Count” value in the series with SH-SY5Y cells [3] came out at 128.21.
In the case of `CS(=O)(=O)Nc1ccc(-c2ccnc3[nH]ccc23)cc1` [UNC10225427A], the “DQ Intensity” value in the series on SH-SY5Y cells [1] (DQ Red BSA intensity) amounted to 61.89. The “DQ Spot” value in the series on SH-SY5Y cells [1] (DQ Red BSA spot count) amounted to 80.51. The compound further registered an AK in the series on SH-SY5Y cells [2] of 106.42. The TFE3 % in the series with endogenous TFE3 is given as 8.99%. Also, the TFEB % in the series on endogenous TFEB stood at 2.64%. The “Nuclear Count” value with SH-SY5Y cells [3] was determined as 134.12.
Regarding `COC(=O)c1cccc(NC(=O)NC2CCN(c3ccnc(Nc4ccc(OC)cc4)n3)C2)c1` (stereo not drawn) [GSK1379746], the “DQ Intensity” value in the series with SH-SY5Y cells [1] (DQ Red BSA intensity) was 97.94. Further, the “DQ Spot” value in the series on SH-SY5Y cells [1] (DQ Red BSA spot count) was determined as 97.45. Further, the AK with SH-SY5Y cells [2] stood at 99.00. In the series on endogenous TFE3, this compound came in with a TFE3 % of 11.39%. Further, the TFEB % in the series on endogenous TFEB was determined as 6.50%. For the same compound, the “Nuclear Count” value in the series on SH-SY5Y cells [3] stood at 105.57.
Consider `Nc1ncc(-c2cn[nH]c2)c2scc(-c3ccc4c(c3)CCN4C(=O)Cc3ccccc3)c12` [UNC10225500A], for which the “DQ Intensity” value in the series with SH-SY5Y cells [1] (DQ Red BSA intensity) turned out to be 108.00. Moreover, in the series on SH-SY5Y cells [1] (DQ Red BSA spot count), the “DQ Spot” value is 96.83. The AK in the series on SH-SY5Y cells [2] was determined as 74.47. In addition, the TFE3 % in the series with endogenous TFE3 was found to be 18.45%. Moreover, the TFEB % in the series with endogenous TFEB was found to be 8.67%. Also, in the series on SH-SY5Y cells [3], the “Nuclear Count” value came out at 110.94.
On to `Oc1cc(Nc2ccnc3cc(I)ccc23)ccc1F` [UNC10225441A], for which, in the series on SH-SY5Y cells [1] (DQ Red BSA intensity), the “DQ Intensity” value is recorded as 124.88. The “DQ Spot” value in the series with SH-SY5Y cells [1] (DQ Red BSA spot count) is 110.03. Besides, the AK in the series with SH-SY5Y cells [2] stood at 73.72. Also, the TFE3 % in the series on endogenous TFE3 is on record as 8.03%. In the series on endogenous TFEB, this compound came in with a TFEB % of 12.97%. In addition, the “Nuclear Count” value with SH-SY5Y cells [3] was 104.34.
For the compound `Nc1nc(N)c2nc(-c3ccccc3)[nH]c2n1` [UNC10225149A], in the series on SH-SY5Y cells [1], the “DQ Intensity” value is listed as 89.50 and the “DQ Spot” value is given as 98.14. In the series with SH-SY5Y cells [2], this compound had an AK of 120.42. Besides, the TFE3 % in the series on endogenous TFE3 was 9.26%. Further, the TFEB % with endogenous TFEB worked out at 6.49%. Further, the “Nuclear Count” value in the series with SH-SY5Y cells [3] is recorded as 98.36.
As for `CN(c1ccc2c(c1)nc(NCc1ccc(F)cc1)n2C)c1ccnc(Nc2ccc(CS(C)(=O)=O)cc2)n1` [GW813244], the “DQ Intensity” value with SH-SY5Y cells [1] (DQ Red BSA intensity) is 93.66. Moreover, the “DQ Spot” value with SH-SY5Y cells [1] (DQ Red BSA spot count) is 106.18. Moreover, the AK in the series on SH-SY5Y cells [2] is given as 87.46. This compound returned a TFE3 % in the series with endogenous TFE3 of 13.77%. Also, in the series on endogenous TFEB, the TFEB % is 4.30%. The “Nuclear Count” value with SH-SY5Y cells [3] amounted to 104.49.
Take `O=C(O)C(F)(F)F.O=C(O)C(F)(F)F.O=c1[nH]ccc2nc(N[C@@H]3CCCNC3)nc(Nc3ccc(S(=O)(=O)N4CCOCC4)cc3)c12` [UNC10225269A]: in the series on SH-SY5Y cells [1], the “DQ Intensity” value is recorded as 101.94 and the “DQ Spot” value amounted to 104.22. In the series with SH-SY5Y cells [2], this compound gave an AK of 88.07. Besides, the TFE3 % in the series with endogenous TFE3 was 12.97%. For the same compound, the TFEB % with endogenous TFEB amounted to 8.33%. Besides, the “Nuclear Count” value in the series on SH-SY5Y cells [3] is reported as 106.18.
With `CNc1cc(-c2ccc3c(N)n[nH]c3c2)nc(N)n1` [GSK2224810], in the series with SH-SY5Y cells [1] (DQ Red BSA intensity), the “DQ Intensity” value is reported as 93.32. Besides, the “DQ Spot” value in the series on SH-SY5Y cells [1] (DQ Red BSA spot count) came out at 95.12. This compound had an AK in the series with SH-SY5Y cells [2] of 132.47. For the same compound, the TFE3 % in the series with endogenous TFE3 is listed as 7.03%. This compound showed a TFEB % in the series on endogenous TFEB of 4.15%. Also, in the series with SH-SY5Y cells [3], the “Nuclear Count” value turned out to be 109.90.
Take `CCc1nc(-c2cccc(N(C)S(=O)(=O)c3ccccc3)c2)c(-c2ccnc(Nc3ccc(N4CCN(C(C)=O)CC4)nc3)n2)s1` [UNC10225205A]: in the series with SH-SY5Y cells [1], the “DQ Intensity” value worked out at 90.69 and the “DQ Spot” value is reported as 101.49. The AK with SH-SY5Y cells [2] is given as 111.97. In addition, the TFE3 % in the series on endogenous TFE3 was 16.25%. The same compound registered a TFEB % in the series on endogenous TFEB of 7.99%. The “Nuclear Count” value in the series on SH-SY5Y cells [3] is reported as 89.51.
For the compound `NCCNS(=O)(=O)c1ccc(-c2ccnc3[nH]ccc23)cc1` [UNC10225023A], in the series on SH-SY5Y cells [1] (DQ Red BSA intensity), the “DQ Intensity” value is 104.54. In addition, the “DQ Spot” value in the series on SH-SY5Y cells [1] (DQ Red BSA spot count) stood at 94.72. In the series with SH-SY5Y cells [2], this compound gave an AK of 82.12. Moreover, the TFE3 % in the series with endogenous TFE3 is on record as 9.07%. This compound also displayed a TFEB % in the series with endogenous TFEB of 3.25%. In the series on SH-SY5Y cells [3], the “Nuclear Count” value is given as 129.56.

The record behind these values is article PMC9851200, “Multiparameter phenotypic screening for endogenous TFEB and TFE3 translocation identifies novel chemical series modulating lysosome function” (Autophagy, 2022).
